These results are taken from patent US12459939B2 (SHANGHAI RINGENE BIOPHARMA CO., LTD., priority 2019, dated 2025).

Read-outs that look alike come from different tables or passages of the source.

The test system of data set [1] is LNCAP, SKM-1, MOLM13, KASUMI 1, THP-1, KG-1. Description: Proliferation inhibition of different cell lines: most sensitive lines. The data set is classed as cell-based. Conditions: some cell lines such as LNCAP, read-out: proliferation inhibitory activity IC50. On the procedure: (§1) The proliferation inhibitory activity of some of the embodiment compounds against different cell lines such as LNCAP (+R1881), SKM-1, 22RV1, DU145, MOLM13, MDA-PCA-2b, KASUMI 1, THP-1, KG-1, IEC6, H1299, etc., was tested using similar methods in test embodiment 2 and in the literature.

Data set [2] has as its system MV 4-11 transplanted tumor. Description: Growth inhibition of MV 4-11 transplanted tumor in nude mice. It is filed as in vivo. The note with it: for inhibitory rate (growth of transplanted tumor): dose of 15 mpk, oral, daily; for tolerability in experimental animals / tumor inhibitory effect: higher doses, 50 mg/kg-100 mg/kg. On the procedure:
The tumor tissue in vigorous growth stage was cut into about 1.5 mm^3 and inoculated subcutaneously in the right armpit of nude mice under sterile conditions. The diameter of subcutaneous transplanted tumor in nude mice was measured with vernier caliper, and the animals were randomly divided into groups when the average tumor volume was about 130 mm^3. […] During the whole experiment, the diameter of the transplanted tumor was measured twice a week, and the weight of mice was weighed at the same time. The calculation formula of tumor volume (TV) was: TV=½×a×b^2, wherein a and b represent the length and width respectively. The relative tumor volume (RTV) was calculated according to the measurement results, and the calculation formula was: RTV=VT/v0. Wherein VO is the tumor volume measured during the administration in cage (i.e., d0), and Vt is the tumor volume at each measurement.

The next data set has as its target T1, CYP1A2 (Homo sapiens, UniProt P05177).
T1 construct: human liver microsomes (final concentration was 0.2 mg/mL); from tissue; host or cells: human liver microsomes
T1 sequence (P05177 1-516): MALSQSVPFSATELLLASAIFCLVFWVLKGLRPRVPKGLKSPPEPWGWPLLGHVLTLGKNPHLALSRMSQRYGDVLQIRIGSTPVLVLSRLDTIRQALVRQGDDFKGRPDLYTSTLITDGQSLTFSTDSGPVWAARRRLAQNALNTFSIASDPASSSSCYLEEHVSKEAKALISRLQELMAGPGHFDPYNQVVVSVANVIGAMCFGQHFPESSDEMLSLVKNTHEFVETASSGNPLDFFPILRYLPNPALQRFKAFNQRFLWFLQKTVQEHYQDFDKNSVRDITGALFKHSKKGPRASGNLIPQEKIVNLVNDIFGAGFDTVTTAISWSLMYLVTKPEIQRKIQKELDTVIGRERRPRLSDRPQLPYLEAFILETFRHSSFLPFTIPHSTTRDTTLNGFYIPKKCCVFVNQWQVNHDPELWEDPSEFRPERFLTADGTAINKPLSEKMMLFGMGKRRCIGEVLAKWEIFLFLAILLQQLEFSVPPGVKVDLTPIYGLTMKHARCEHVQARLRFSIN
Description: Direct inhibition test (DI test) in human liver microsomes, CYP1A2. The note with it: read-out: inhibitory IC50 on CYP1A2. It is filed as in vitro ADME. On the procedure: (§2) (2) Direct inhibition test (DI test): 1004 of human liver microsomes (final concentration was 0.2 mg/mL) system was subjected to inhibition incubation directly, the system contains NADPH (final concentration was 1 mM), 10 μM compound, positive inhibitor cocktail (ketoconazole 10 μM, quinidine 10 μM, sulfapyrazole 100 μM, a-naphthoflavone 10 μM, tranylcypromine […]), negative control (0.1% DMSO BPS) and mixed probe substrate (midazolam 1004, testosterone 10004, dextromethorphan 10 μM, diclofenac 20 μM, phenacetin 100 μM, mephenytoin 100 μM), the reaction was terminated after incubation for 20 min. The relative enzyme activity was calculated by measuring the relative production of metabolites.
Background: Liver microsomes are a subcellular fraction often used to study metabolism.

The next data set concerns the target T2, BRD4-BD1 (Homo sapiens, UniProt O60885).
T2 construct: purchased ReactionBiologyCorp; (RBC)
Description: BRD4 AlphaScreen determination (BD1). The data set is classed as binding. As to the method: (1) 1× Assay buffer was prepared according to the kit requirements of ReactionBiologyCorp. (RBC). (2) Compound concentration gradient preparation: the test compounds were tested at final concentrations starting at 10 μM, with 10 concentrations at 3-fold dilution and single well test was set for each concentration. The positive control compound(+)-JQ-1 was tested at final concentrations starting at 1 μM, with 10 concentrations at 3-fold dilution, and duplicated well test was set for each concentration. The solution was gradient diluted to the corresponding 1000-fold final concentration in a 384-well Source plate, and then 20 nL of the solution was transferred to the 384-well reaction plate with Echo550 to be measured. 20 nL of 100% DMSO was transferred to the Max well, and the highest concentration of the positive compounds were transferred to the Min wells. […] (6) 5 μL of 4× peptide solution was added to each well of the reaction plate, centrifuged at 1000 rpm for 1 min. (7) 10 μL of the assay solution was added, centrifuged at 1000 rpm for 60 seconds, the solution was mixed with gentle shaking, and incubated at room temperature for 60 minutes. (8) Reading with EnVision. (9) The IC50 values of the compounds for protein binding inhibition was obtained by fitting the dose-effect curve with the analytical software GraphPad Prism 5. (See Table 1 for specific values)
(In general: Bead proximity is the source of the signal in Alpha formats.)

A further data set concerns H1299. Description: Proliferation inhibition of H1299 cells. The note with it: Homo sapiens, NCI-H1299; H1299 cell line; read-out: proliferation inhibitory activity IC50. The data set is classed as cell-based. As to the method:
as §1

A further data set concerns the target T3, CYP2C8 (Homo sapiens, UniProt P10632).
T3 sequence (P10632 1-490): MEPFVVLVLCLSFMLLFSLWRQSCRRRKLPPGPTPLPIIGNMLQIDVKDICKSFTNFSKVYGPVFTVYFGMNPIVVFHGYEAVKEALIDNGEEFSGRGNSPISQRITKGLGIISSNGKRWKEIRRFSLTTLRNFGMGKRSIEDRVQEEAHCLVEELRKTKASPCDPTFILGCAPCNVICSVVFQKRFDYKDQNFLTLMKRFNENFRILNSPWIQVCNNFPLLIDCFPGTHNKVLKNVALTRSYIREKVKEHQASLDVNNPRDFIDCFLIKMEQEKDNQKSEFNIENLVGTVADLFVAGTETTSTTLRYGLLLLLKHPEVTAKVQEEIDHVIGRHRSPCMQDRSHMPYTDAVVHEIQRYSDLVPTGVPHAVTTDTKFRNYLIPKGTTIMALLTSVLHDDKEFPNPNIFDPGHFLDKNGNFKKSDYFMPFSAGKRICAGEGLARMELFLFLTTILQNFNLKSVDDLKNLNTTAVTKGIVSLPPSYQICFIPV
Description: Direct inhibition test (DI test) in human liver microsomes, CYP2C8. It is filed as in vitro ADME. The note with it: read-out: inhibitory IC50 on CYP 2C8. On the procedure: as §2

The next data set concerns IEC6. Description: Proliferation inhibition of IEC6 cells. The data set is classed as cell-based. The note with it: Rattus norvegicus, IEC-6; IEC6 cell line; read-out: proliferation inhibitory activity IC50. As to the method:
as §1

The target in a further data set is T4, CYP3A4 (Homo sapiens, UniProt P08684).
T4 construct: human liver microsomes (final concentration was 0.2 mg/mL); from tissue; host or cells: human liver microsomes
Description: Direct inhibition test (DI test) in human liver microsomes, CYP3A4. Conditions: read-out: inhibitory IC50 on CYP 3A4. It is filed as in vitro ADME. As to the method:
as §2

In data set [3] the test system is most AML cell lines and prostate cancer cell lines. Kind of data set: Proliferation inhibition of different cell lines: AML and prostate cancer lines. The note with it: read-out: proliferation inhibitory activity IC50. The data set is classed as cell-based. On the procedure:
as §1

T4 sequence (P08684 whole entry): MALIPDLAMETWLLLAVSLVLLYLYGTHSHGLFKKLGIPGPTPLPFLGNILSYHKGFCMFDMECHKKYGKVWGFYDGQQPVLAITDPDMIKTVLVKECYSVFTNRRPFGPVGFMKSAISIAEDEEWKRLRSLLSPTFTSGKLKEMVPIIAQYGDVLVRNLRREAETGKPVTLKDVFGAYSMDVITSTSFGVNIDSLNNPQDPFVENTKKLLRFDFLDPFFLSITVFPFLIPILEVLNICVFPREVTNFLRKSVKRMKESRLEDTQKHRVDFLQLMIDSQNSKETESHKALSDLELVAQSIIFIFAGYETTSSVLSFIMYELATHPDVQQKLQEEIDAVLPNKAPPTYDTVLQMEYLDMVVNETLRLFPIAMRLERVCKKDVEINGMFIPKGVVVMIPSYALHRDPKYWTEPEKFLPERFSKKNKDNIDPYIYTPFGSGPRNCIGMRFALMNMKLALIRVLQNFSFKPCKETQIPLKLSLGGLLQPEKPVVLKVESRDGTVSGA

On to `Cc1cc(F)cc(C)c1Oc1ccc(C(C)(C)O)cc1-c1cn(C)c(=O)c2cc(C(=O)NC3CC(F)(F)C3)[nH]c12` [Embodiment 18, N-(3,3-difluorocyclobutyl)-7-(2-(4-fluoro-2,6-dimethylphenoxy)-5-(2-hydroxyprop-2-yl)phenyl)-5-methyl-4-oxo-4,5-dihydro-1H-pyrrolo[3,2-c] pyridine-2-amide], for which the IC50 in [1] was below 100 nM; at CYP1A2 it was above 15000 nM; at BRD4-BD1 (AlphaScreen, protein binding inhibition, read-out: BRD4-BD1 IC50), 117 nM; in the data set on H1299 it was above 1000 nM; in the data set with IEC6, above 1000 nM; at CYP3A4 it was above 15000 nM. Besides, in [3], the IC50 was below 1000 nM. Besides, the “inhibitory rate (growth of transplanted tumor)” value in data set [2] was found to be 82%. Moreover, the “tolerability in experimental animals” value in data set [2] is recorded as “tolerate it well”. Moreover, in data set [2], the tumor inhibitory effect entry is recorded as “obvious”. For the same compound, the IC50 at 20 min on CYP2C8 is above 15000 nM.

For the compound `CCNC(=O)c1cc2c(=O)n(C)cc(-c3cc(C(C)(C)O)ccc3Oc3c(C)cc(F)cc3C)c2[nH]1` [compound 1, reference compound], the IC50 in [1] was below 100 nM; on CYP1A2, above 15000 nM; against BRD4-BD1, 40 nM; with H1299, above 1000 nM; in the data set on IEC6, above 1000 nM; on CYP3A4, above 15000 nM. In addition, in [3], the IC50 is below 1000 nM. Also, the “inhibitory rate (growth of transplanted tumor)” value in data set [2] worked out at 82%. Besides, the “tolerability in experimental animals” value in [2] is “tolerate it well”. Moreover, the tumor inhibitory effect result in data set [2] is reported as “obvious”. Moreover, the IC50 at 20 min at CYP2C8 was above 15000 nM.
